The conditions of data set [1]: cited from earlier work.
In data set [2] the test system is insects. The note with it: stated without test data. The text has this:
Thiamin hydrochloride is soluble in water and glycerin and other polyhydric alcohols.

For data set [3] the following is noted: 100 mg/day consumed over a number of days; cited from earlier work.
The subject of data set [4] is mosquitoes and other biting insects. The note with it: ingested doses of up to 100 mg/day for several weeks; cited from earlier work.

Counter-ions that a name gives are not always drawn. Like-named read-outs stand apart in the source and are kept apart here.

Consider `Cc1ncc(C[n+]2csc(CCO)c2C)c(N)n1` [Thiamin hydrochloride], for which the solubility entry in data set [1] (in organic solvents) is recorded as “not readily soluble”; in data set [1] (in water and glycerin and other polyhydric alcohols) it was “soluble”. Further, in data set [2], the insect repellant properties result is given as “have insect repellant properties”.
In the case of `Cc1ncc(C[n+]2csc(CCO)c2C)c(N)n1` [thiamin, Thiamin], the “adverse effects of ingestion” value in data set [3] was “can cause anaphylactic stock, allergic reactions and skin rashes”. The “insect repellency on the human skin” value in data set [4] is “will repel mosquitoes and other biting insects from the skin”.
As to Thiamin mononitrate, the insect repellant properties entry in data set [2] is listed as “have insect repellant properties”.

The values are drawn from patent US20070092546A1, “Thiamin based insect repellant” (Violet Fire, LLC, priority 2005, published 2007).
